Source: ChEMBL document CHEMBL5046277, “Rational Design for Nitroreductase (NTR)-Responsive Proteolysis Targeting Chimeras (PROTACs) Selectively Targeting Tumor Tissues” (J Med Chem, 2022)
Activity calls are given as the source filed them. No cut-off for these calls is given here.

Key:
HCC827 [1] = assay: Antiproliferative activity against human HCC827 cells assessed as reduction in cell viability measured after 72 hrs under normoxic condition by CCK-8 assay; type: functional, cell-based; details: HCC827, 72 h
[2] = target: von Hippel-Lindau disease tumor suppressor/Epidermal growth factor receptor (Homo sapiens) (UniProt P00533+P40337); assay: Protac activity at VHL/EGFR in human HCC827 cells assessed as induction of EGFR degradation at 100 nM pretreated for 2 hrs with VHL-L followed by compound addition; type: cell-based
HCC827 [3] = assay: Antiproliferative activity against human HCC827 cells assessed as cell viability measured after 72 hrs under hypoxic condition by CCK-8 assay; type: functional, cell-based; details: HCC827, 72 h
[4] = target: Epidermal growth factor receptor (Homo sapiens) (UniProt P00533); assay: Induction of EGFR degradation in human HCC827 cells assessed as EGFR protein level measured after 72 hrs under normoxic condition by Western blot assay; type: functional, cell-based
HCC827 [5] = assay: Antiproliferative activity against human HCC827 cells assessed as cell viability measured after 72 hrs in presence of NTR by CCK-8 assay; type: functional, cell-based; details: HCC827, 72 h
[6] = target: Epidermal growth factor receptor (Homo sapiens) (UniProt P00533); assay: Induction of EGFR degradation in human HCC827 cells assessed as EGFR protein level measured after 72 hrs by Western blot assay; type: cell-based
HCC827 [7] = assay: Antiproliferative activity against human HCC827 cells assessed as cell viability measured after 72 hrs by CCK-8 assay; type: functional, cell-based

Sequence of Epidermal growth factor receptor (Homo sapiens) (P00533 whole entry): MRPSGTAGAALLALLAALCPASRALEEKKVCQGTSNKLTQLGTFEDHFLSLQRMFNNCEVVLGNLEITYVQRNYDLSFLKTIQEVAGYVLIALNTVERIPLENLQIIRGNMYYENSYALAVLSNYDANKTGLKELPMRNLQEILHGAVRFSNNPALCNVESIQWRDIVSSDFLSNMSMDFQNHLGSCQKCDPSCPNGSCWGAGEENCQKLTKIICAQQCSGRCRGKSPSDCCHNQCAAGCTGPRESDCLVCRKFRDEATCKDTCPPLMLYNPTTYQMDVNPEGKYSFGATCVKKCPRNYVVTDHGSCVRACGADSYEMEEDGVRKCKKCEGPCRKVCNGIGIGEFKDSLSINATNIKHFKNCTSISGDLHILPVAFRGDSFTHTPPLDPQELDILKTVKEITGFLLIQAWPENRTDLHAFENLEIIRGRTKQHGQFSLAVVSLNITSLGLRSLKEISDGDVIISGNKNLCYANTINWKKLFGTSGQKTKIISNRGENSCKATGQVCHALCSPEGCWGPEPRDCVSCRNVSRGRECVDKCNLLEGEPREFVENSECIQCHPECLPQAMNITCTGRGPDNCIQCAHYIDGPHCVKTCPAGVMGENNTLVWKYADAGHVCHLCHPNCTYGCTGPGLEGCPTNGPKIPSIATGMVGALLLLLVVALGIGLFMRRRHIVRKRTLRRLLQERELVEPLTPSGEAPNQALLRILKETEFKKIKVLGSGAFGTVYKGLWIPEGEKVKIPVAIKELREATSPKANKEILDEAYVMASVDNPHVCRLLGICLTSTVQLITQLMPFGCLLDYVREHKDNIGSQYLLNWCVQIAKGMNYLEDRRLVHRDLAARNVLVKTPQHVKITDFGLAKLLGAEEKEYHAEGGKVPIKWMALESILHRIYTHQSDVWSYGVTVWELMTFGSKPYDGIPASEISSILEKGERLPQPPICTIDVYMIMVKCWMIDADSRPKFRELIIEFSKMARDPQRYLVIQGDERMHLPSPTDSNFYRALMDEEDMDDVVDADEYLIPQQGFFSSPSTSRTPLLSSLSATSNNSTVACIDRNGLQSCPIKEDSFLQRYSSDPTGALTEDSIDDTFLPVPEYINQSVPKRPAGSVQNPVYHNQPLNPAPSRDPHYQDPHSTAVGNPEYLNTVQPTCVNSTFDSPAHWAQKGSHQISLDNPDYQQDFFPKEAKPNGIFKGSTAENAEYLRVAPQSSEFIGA
Sequence of von Hippel-Lindau disease tumor suppressor/Epidermal growth factor receptor (Homo sapiens) (P00533 25-1210 limits assumed): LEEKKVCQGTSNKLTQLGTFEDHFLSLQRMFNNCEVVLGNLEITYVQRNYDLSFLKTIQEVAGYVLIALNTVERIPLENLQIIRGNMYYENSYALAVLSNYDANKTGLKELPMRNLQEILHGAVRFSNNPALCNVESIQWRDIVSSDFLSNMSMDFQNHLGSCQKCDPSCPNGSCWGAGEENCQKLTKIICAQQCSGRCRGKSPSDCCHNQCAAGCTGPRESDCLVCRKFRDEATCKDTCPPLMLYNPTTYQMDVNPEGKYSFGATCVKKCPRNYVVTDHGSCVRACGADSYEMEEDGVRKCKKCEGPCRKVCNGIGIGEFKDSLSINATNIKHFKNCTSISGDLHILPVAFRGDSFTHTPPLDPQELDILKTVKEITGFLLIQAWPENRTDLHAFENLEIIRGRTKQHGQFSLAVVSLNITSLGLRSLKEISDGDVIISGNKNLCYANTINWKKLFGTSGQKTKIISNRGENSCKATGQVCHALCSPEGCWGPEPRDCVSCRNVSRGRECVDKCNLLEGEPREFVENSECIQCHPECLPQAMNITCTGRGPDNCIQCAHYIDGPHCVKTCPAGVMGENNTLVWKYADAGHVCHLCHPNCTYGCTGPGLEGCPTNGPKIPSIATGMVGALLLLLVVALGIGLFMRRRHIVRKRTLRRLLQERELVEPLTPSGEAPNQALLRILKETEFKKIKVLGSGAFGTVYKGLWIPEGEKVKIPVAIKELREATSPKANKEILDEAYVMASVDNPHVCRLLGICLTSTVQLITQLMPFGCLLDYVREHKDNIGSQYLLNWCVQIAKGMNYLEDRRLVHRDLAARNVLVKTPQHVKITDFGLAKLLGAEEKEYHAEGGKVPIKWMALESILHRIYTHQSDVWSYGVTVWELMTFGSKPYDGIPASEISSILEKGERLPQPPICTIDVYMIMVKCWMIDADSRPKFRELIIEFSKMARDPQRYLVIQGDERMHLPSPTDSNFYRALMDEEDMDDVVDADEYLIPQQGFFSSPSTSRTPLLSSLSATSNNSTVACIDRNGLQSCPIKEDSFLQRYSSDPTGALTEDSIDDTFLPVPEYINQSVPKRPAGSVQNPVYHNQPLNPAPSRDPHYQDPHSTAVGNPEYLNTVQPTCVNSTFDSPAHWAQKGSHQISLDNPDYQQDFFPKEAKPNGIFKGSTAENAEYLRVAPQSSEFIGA
Sequence of von Hippel-Lindau disease tumor suppressor/Epidermal growth factor receptor (Homo sapiens) (P40337 whole entry partner): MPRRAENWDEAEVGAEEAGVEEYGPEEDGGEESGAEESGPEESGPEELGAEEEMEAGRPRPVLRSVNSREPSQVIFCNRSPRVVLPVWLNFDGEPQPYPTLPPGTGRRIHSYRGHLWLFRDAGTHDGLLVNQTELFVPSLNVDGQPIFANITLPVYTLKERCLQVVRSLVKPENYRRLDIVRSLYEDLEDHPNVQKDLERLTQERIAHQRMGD

Row | IC50 (HCC827 [1]) | Activity [2] | IC50 (HCC827 [3]) | Activity [4] | IC50 (HCC827 [5]) | Activity [6] | SMILES | Activity (HCC827 [7])
1 | 4 nM | Active | 18.7 nM | Dose-Dependent Effect | 6 nM |  | Cc1ncsc1-c1ccc(CNC(=O)[C@@H]2C[C@@H](O)CN2C(=O)[C@@H](NC(=O)COCCOCCn2cc(CCCCCOc3cc4ncnc(Nc5ccc(F)c(Cl)c5)c4cc3NC(=O)/C=C/CN3CCCCC3)nn2)C(C)(C)C)cc1 | 
2 |  |  |  | inactive |  | inactive | Cc1ncsc1-c1ccc(CNC(=O)[C@@H]2C[C@@H](O)CN2C(=O)[C@@H](NC(=O)COCCOCCOCCn2cc(COc3cc4ncnc(Nc5ccc(F)c(Cl)c5)c4cc3NC(=O)/C=C/CN3CCCCC3)nn2)C(C)(C)C)cc1 | inactive
